Experimental findings from US20250333424A1, “ANTIVIRAL COMPOUNDS” (Gilead Sciences, Inc., priority 2024, published 2025) are described below.

pEC50: −log10 of the molar value.

This experiment has as its system monocytic THP1 cells infected with HIV VSV-G pseudotyped GFP-NEF reporter virus. Briefly: cells. It counts as cell-based. The conditions noted are these: Human immunodeficiency virus 1, THP-1, 24 h.
As to `COCCNc1nc2nc(NC34CC(C#N)(C3)C4)nc(Oc3c(C)cc(/C=C/C#N)cc3C)c2[nH]1` [Compound 46, (E)-3-((6-(4-(2-cyanovinyl)-2,6-dimethylphenoxy)-8-((2-methoxyethyl)amino)-7H-purin-2-yl)amino)bicyclo[1.1.1]pentane-1-carbonitrile], the pEC50 (in general, −log10 of the EC50, conventionally taken in molar units) was 7.05. For the compound `Cc1cc(/C=C/C#N)cc(C)c1Oc1nc(NC23CC(C#N)(C2)C3)nc2c1C(C)OC2` (stereo not shown) [Example 263, (E)-3-((4-(4-(2-cyanovinyl)-2,6-dimethylphenoxy)-5-methyl-5,7-dihydrofuro[3,4-d]pyrimidin-2-yl)amino)bicyclo[1.1.1]pentane-1-carbonitrile], the pEC50 is 7.22. As for `Cc1cc(/C=C/C#N)cc(C)c1Oc1nc(NC23CC(C#N)(C2)C3)nc2c1CNC2` [Compound 135, (E)-3-((4-(4-(2-cyanovinyl)-2,6-dimethylphenoxy)-6,7-dihydro-5H-pyrrolo[3,4-d]pyrimidin-2-yl)amino)bicyclo[1.1.1]pentane-1-carbonitrile], the figure is 6.56; as for `Cc1cc([C@@H]2C[C@H]2C#N)cc(C)c1Oc1nc(NC23CC(C#N)(C2)C3)nc2nn(C)cc12` (racemic) [Compound 134, (rac)-3-((4-(4-((1R,2R)-2-cyanocyclopropyl)-2,6-dimethylphenoxy)-2-methyl-2H-pyrazolo[3,4-d]pyrimidin-6-yl)amino)bicyclo[1.1.1]pentane-1-carbonitrile], 6.58.

For `Cc1cc(/C=C/C#N)cc(C)c1Oc1nc(NC23CC(C#N)(C2)C3)nc2nc3n(c12)CCC3` [Compound 196, (E)-3-((4-(4-(2-cyanovinyl)-2,6-dimethylphenoxy)-7,8-dihydro-6H-pyrrolo[2,1-f]purin-2-yl)amino)bicyclo[1.1.1]pentane-1-carbonitrile], the pEC50 was 7.61.

As to `CNC(=O)Cn1nc(C)c2c(Oc3c(C)cc(/C=C/C#N)cc3C)nc(NC34CC(C#N)(C3)C4)nc21` [Compound 99, (E)-2-(6-((3-cyanobicyclo[1.1.1]pentan-1-yl)amino)-4-(4-(2-cyanovinyl)-2,6-dimethylphenoxy)-3-methyl-1H-pyrazolo[3,4-d]pyrimidin-1-yl)-N-methylacetamide], the pEC50 is 7.43. `CCOc1nn(CC)c2c(Oc3c(C)cc(/C=C/C#N)cc3C)nc(NC34CC(C#N)(C3)C4)nc12` [Compound 294, (E)-3-((7-(4-(2-cyanovinyl)-2,6-dimethylphenoxy)-3-ethoxy-1-ethyl-1H-pyrazolo[4,3-d]pyrimidin-5-yl)amino)bicyclo[11.1.1]pentane-1-carbonitrile] had a pEC50 of 7.63. The same measure for `Cc1cc(/C=C/C#N)cc(C)c1Oc1nc(NC23CC(C#N)(C2)C3)nc2c1C1OCCCN1C2=O` (racemic) [Compound 278, (E)-3-((4-(4-(2-cyanovinyl)-2,6-dimethylphenoxy)-10-oxo-4b,7,8,10-tetrahydro-6H-pyrimido[5′,4′:3,4]pyrrolo[2,1-b][1,3]oxazin-2-yl)amino)bicyclo[1.1.1]pentane-1-carbonitrile]: 7.51; for `C=CCN1C(=O)c2nc(NC34CC(C#N)(C3)C4)nc(Oc3c(C)cc(/C=C/C#N)cc3C)c2C1C` (stereo not shown) [Example 205, (E)-3-((6-allyl-4-(4-(2-cyanovinyl)-2,6-dimethylphenoxy)-5-methyl-7-oxo-6,7-dihydro-5H-pyrrolo[3,4-d]pyrimidin-2-yl)amino)bicyclo[1.1.1]pentane-1-carbonitrile]: 7.37. Regarding `Cc1cc(/C=C/C#N)cc(C)c1Oc1nc(NC23CC(C#N)(C2)C3)nc2nn(CC#N)cc12` [Compound 304, (E)-3-((2-(cyanomethyl)-4-(4-(2-cyanovinyl)-2,6-dimethylphenoxy)-2H-pyrazolo[3,4-d]pyrimidin-6-yl)amino)bicyclo[1.1.1]pentane-1-carbonitrile], the pEC50 is 6.97. As for `CO[C@H]1COC2(C)c3c(Oc4c(C)cc(/C=C/C#N)cc4C)nc(NC45CC(C#N)(C4)C5)nc3C(=O)N2C1` (single isomer, unassigned) [Example 235], the pEC50 was 7.64.

With `Cc1cc(/C=C/C#N)cc(C)c1Oc1nc(NC23CC(C#N)(C2)C3)nc2c1C1(C)OC[C@H](F)CN1C2=O` (stereo partly drawn) [Example 202, 3-(((7R)-4-(4-((E)-2-cyanovinyl)-2,6-dimethylphenoxy)-7-fluoro-4b-methyl-10-oxo-4b,7,8,10-tetrahydro-6H-pyrimido[5′,4′:3,4]pyrrolo[2,1-b][1,3]oxazin-2-yl)amino)bicyclo[1.1.1]pentane-1-carbonitrile], the pEC50 is 7.72. `Cc1cc(/C=C/C#N)cc(C)c1Oc1nc(NC23CC(C#N)(C2)C3)nc2c1nc1n2CCCO1` (single isomer, unassigned) [Compound 183, (E)-3-((4-(4-(2-cyanovinyl)-2,6-dimethylphenoxy)-8,9-dihydro-7H-[1,3]oxazino[3,2-e]purin-2-yl)amino)bicyclo[1.1.1]pentane-1-carbonitrile] had a pEC50 of 7.10. As for `CO[C@H]1COC2c3c(Oc4c(C)cc(/C=C/C#N)cc4C)nc(NC45CC(C#N)(C4)C5)nc3C(=O)N2C1` (single isomer, unassigned) [Example 252], the figure is 7.11; as for `Cc1cc(/C=C/C#N)cc(C)c1Oc1nc(NC23CC(C#N)(C2)C3)nc2c1C(C)N(c1cnn(C(F)(F)F)c1)C2=O` (stereo not shown) [Example 217, (E)-3-((4-(4-(2-cyanovinyl)-2,6-dimethylphenoxy)-5-methyl-7-oxo-6-(1-(trifluoromethyl)-1H-pyrazol-4-yl)-6,7-dihydro-5H-pyrrolo[3,4-d]pyrimidin-2-yl)amino)bicyclo[1.1.1]pentane-1-carbonitrile], 6.80; as for `CNC(=O)Cn1nc2nc(NC34CC(C#N)(C3)C4)nc(Oc3c(C)cc(/C=C/C#N)cc3C)c2c1C` [Compound 98, (E)-2-(6-((3-cyanobicyclo[1.1.1]pentan-1-yl)amino)-4-(4-(2-cyanovinyl)-2,6-dimethylphenoxy)-3-methyl-2H-214-pyrazolo[3,4-d]pyrimidin-2-yl)-N-methylacetamide], 7.03. The same measure for `Cc1cc(/C=C/C#N)cc(C)c1Oc1nc(NC23CC(C#N)(C2)C3)nc2nc3n(c12)C[C@H](O)CO3` (single isomer, unassigned) [Compound 194]: 7.30; for `COC1NC(=O)c2nc(NC34CC(C#N)(C3)C4)nc(Oc3c(C)cc(/C=C/C#N)cc3C)c21` (stereo not shown) [Compound 287, (E)-3-((4-(4-(2-cyanovinyl)-2,6-dimethylphenoxy)-5-methoxy-7-oxo-6,7-dihydro-5H-pyrrolo[3,4-d]pyrimidin-2-yl)amino)bicyclo[1.1.1]pentane-1-carbonitrile]: 7.58. As for `Cc1cc(/C=C/C#N)cc(C)c1Oc1nc(NC23CC(C#N)(C2)C3)nc2c1nc(C)n2CC(F)F` (single isomer, unassigned) [Compound 21, (E)-3-((6-(4-(2-cyanovinyl)-2,6-dimethylphenoxy)-9-(2,2-difluoroethyl)-8-methyl-9H-purin-2-yl)amino)bicyclo[1.1.1]pentane-1-carbonitrile], the figure is 6.55; as for `COc1n[nH]c2c(Oc3c(C)cc(/C=C/C#N)cc3C)nc(NC34CC(C#N)(C3)C4)nc12` [Compound 293, (E)-3-((7-(4-(2-cyanovinyl)-2,6-dimethylphenoxy)-3-methoxy-1H-pyrazolo[4,3-d]pyrimidin-5-yl)amino)bicyclo[1.1.1]pentane-1-carbonitrile], 7.25.

As to `Cc1cc(/C=C/C#N)cc(C)c1Oc1nc(NC23CC(C#N)(C2)C3)nc2nc(C(F)F)[nH]c12` [Compound 26, (E)-3-((6-(4-(2-cyanovinyl)-2,6-dimethylphenoxy)-8-(difluoromethyl)-7H-purin-2-yl)amino)bicyclo[1.1.1]pentane-1-carbonitrile], the pEC50 was 6.46.

`Cc1cc(/C=C/C#N)cc(C)c1Oc1nc(NC23CC(C#N)(C2)C3)nc2nn(CC(F)F)c(C)c12` [Compound 83, (E)-3-((4-(4-(2-cyanovinyl)-2,6-dimethylphenoxy)-2-(2,2-difluoroethyl)-3-methyl-2H-pyrazolo[3,4-d]pyrimidin-6-yl)amino)bicyclo[11.1.1]pentane-1-carbonitrile] gave a negative-log EC50 (pEC50) of 6.79. The same measure for `Cc1cc(/C=C/C#N)cc(C)c1Oc1nc(NC23CC(C#N)(C2)C3)nc2c(=O)n(C)[nH]c12` [Compound 290, (E)-3-((7-(4-(2-cyanovinyl)-2,6-dimethylphenoxy)-2-methyl-3-oxo-2,3-dihydro-1H-pyrazolo[4,3-d]pyrimidin-5-yl)amino)bicyclo[1.1.1]pentane-1-carbonitrile]: 6.41; for `Cc1cc(/C=C/C#N)cc(C)c1Oc1nc(NC23CC(C#N)(C2)C3)nc2c1C(C)N(c1cnn(C(C)C)c1)C2=O` (stereo not shown) [Example 226, (E)-3-((4-(4-(2-cyanovinyl)-2,6-dimethylphenoxy)-6-(1-isopropyl-1H-pyrazol-4-yl)-5-methyl-7-oxo-6,7-dihydro-5H-pyrrolo[3,4-d]pyrimidin-2-yl)amino)bicyclo[1.1.1]pentane-1-carbonitrile]: 7.07; for `Cc1cc(/C=C/C#N)cc(C)c1Oc1nc(NC23CC(C#N)(C2)C3)nc2c1C(C)N(c1c(C)nn(C)c1C)C2=O` (stereo not shown) [Example 220, (E)-3-((4-(4-(2-cyanovinyl)-2,6-dimethylphenoxy)-5-methyl-7-oxo-6-(1,3,5-trimethyl-1H-pyrazol-4-yl)-6,7-dihydro-5H-pyrrolo[3,4-d]pyrimidin-2-yl)amino)bicyclo[1.1.1]pentane-1-carbonitrile]: 6.81. Compound `Cc1cc(/C=C/C#N)cc(C)c1Oc1nc(NC23CC(C#N)(C2)C3)nc2c1C1(C)O[C@H](C)CCN1C2=O` (single isomer, unassigned) [Example 242] had a negative-log EC50 (pEC50) of 7.44. As for `Cc1cc(/C=C/C#N)cc(C)c1Oc1nc(NC23CC(C#N)(C2)C3)nc2[nH]c(=O)n(C)c12` [Compound 24, (E)-3-((6-(4-(2-cyanovinyl)-2,6-dimethylphenoxy)-7-methyl-8-oxo-8,9-dihydro-7H-purin-2-yl)amino)bicyclo[1.1.1]pentane-1-carbonitrile], the figure is 7.49; as for `Cc1cc(/C=C/C#N)cc(C)c1Oc1nc(NC23CC(C#N)(C2)C3)nc2nn(-c3ccccc3)cc12` [Compound 74, (E)-3-((4-(4-(2-cyanovinyl)-2,6-dimethylphenoxy)-2-phenyl-2H-pyrazolo[3,4-d]pyrimidin-6-yl)amino)bicyclo[1.1.1]pentane-1-carbonitrile], 6.79.
